Values of other authors, collected in patent US20110151017A1, “OPHTHALMIC SOLUTIONS WITH IMPROVED DISINFECTION PROFILES” (priority 2009, published 2011).

Details: aqueous solution, forming tetrahydroxyborate

OB(O)O [Boric acid]
Ka: 5.8e-10 mol/L
